Reference: patent US10160785B2, “Antimicrobial peptides and their use for the treatment of topical infections” (priority 2015, dated 2018)

Tests used:
[1] = test system: S. aureus (Liberec) biofilm; experiment: Bacterial biofilm, remaining metabolic activity (MTT); format: cell-based, Staphylococcus aureus; details: remaining metabolic activity of biofilm, 20 h
Procedure: (§1) Inoculum of S. aureus (Liberec) or P. aeruginosa (Liberec) cultivated overnight in BHI medium was diluted with fresh BHI medium containing 1% glucose to a final concentration to be ca. 10^8 CFU/ml. Then this was pipetted (100 μl) to 96-multiwell polystyrene plate which was incubated at 37° C. under rotary shaking (300 RPM) for 24 h. Medium without bacteria in the wells was used as a negative control. Supernatant from each well was drained and the biofilm formed on the bottom and on the walls of the wells was cautiously washed three times by sterile physiological solution (300 μl). The peptides tested in the concentrations of 1-128 μmol.l^−1 were prepared by twofold serial dilution of their stock solution (1 mmol.l^−1) in fresh BHI medium and then pipetted (100 μl) to the wells with formed biofilms. The biofilms covered by BHI medium without peptide were used as a positive control. The plates were then incubated for 20 h as described above. After that the liquid was drained out and wells were washed twice with sterile physiological solution.
(§2) The metabolic activity of surviving bacterial cells in the biofilm was determined by staining with MTT (3-(4,5-dimethylthiazol-2-yl)-2,5-diphenyl-2H-tetrazolium bromide) as follows: The mixture of BHI medium (100 μl) and 10 μl of the stock solution of MTT (5 mg/ml in physiological solution) was added to each well and the plate was incubated 40 min at 37° C. The liquid was drained out and the insoluble formazan crystals formed by reduction inside the biofilm were dissolved with dimethyl sulphoxide (100 μl). The intensity of staining in each well was measured as absorbance at 540 nm on a Tecan Infinite M200 Pro reader (Tecan GmbH, Austria). Remaining activity of surviving cells inside the biofilm was expressed for each well in percentage according to the following equation:
(§3) [formula] where A is the absorbance of the tested compound, ABL is the absorbance of the negative control, and AC is the absorbance of control biofilm.

[2] = test system: P. aeruginosa (Liberec) biofilm; experiment: as above; format: cell-based, Pseudomonas aeruginosa; details: remaining metabolic activity of biofilm, 20 h
Procedure: as §1, §2, §3

in vitro = details: human
Procedure: The peptides in the concentrations 2-200 μmol.l^−1 were incubated with the suspension of human red blood cells (5% v/v) for 1 h at 37° C. in a physiological solution at a final volume of 0.2 ml. The samples were then centrifuged for 5 min at 250 g, and the absorbance of the supernatant was determined at 540 nm. Supernatants of red blood cells suspended in physiological solution and in 0.2% (v/v) TRITON X100 in physiological solution served as controls for zero hemolysis (blank) and 100% hemolysis, respectively. Hemolytic activity is expressed as the peptide concentration required for lysis of 50% of human erythrocytes in the assay (LC50).

[3] = peptide concentration 8 μmol · l^−1
[4] = peptide concentration 16 μmol · l^−1
[5] = peptide concentration 32 μmol · l^−1
[6] = peptide concentration 64 μmol · l^−1
[7] = peptide concentration 128 μmol · l^−1

| Molecule | Metabolic activity (%) S. aureus (Liberec) [1, 3] | Metabolic activity (%) S. aureus (Liberec) [1, 4] | Metabolic activity (%) S. aureus (Liberec) [1, 5] | Metabolic activity (%) S. aureus (Liberec) [1, 6] | Metabolic activity (%) S. aureus (Liberec) [1, 7] | Metabolic activity (%) P. aeruginosa (Liberec) [2, 3] | Metabolic activity (%) P. aeruginosa (Liberec) [2, 4] | Metabolic activity (%) P. aeruginosa (Liberec) [2, 5] | Metabolic activity (%) P. aeruginosa (Liberec) [2, 6] | Metabolic activity (%) P. aeruginosa (Liberec) [2, 7] | HC50 at 1 h (in vitro) |
| --- | --- | --- | --- | --- | --- | --- | --- | --- | --- | --- | --- |
| CN[C@H](CC(C)C)C(=O)N[C@H]1C(=O)N[C@@H](CC(N)=O)C(=O)N[C@H]2C(=O)N[C@H]3C(=O)N[C@H](C(=O)N[C@H](C(=O)O)c4cc(O)cc(O)c4-c4cc3ccc4O)[C@H](O)c3ccc(c(Cl)c3)Oc3cc2cc(c3O[C@@H]2O[C@H](CO)[C@@H](O)[C@H](O)[C@H]2O[C@H]2C[C@](C)(N)[C@H](O)[C@H](C)O2)Oc2ccc(cc2Cl)[C@H]1O [Vancomycin, reference compound] | 52.8% | 15.9% | 9.7% | 8.5% | 6.3% |  |  |  |  |  |  |
| NCC[C@H](O)C(=O)N[C@@H]1C[C@H](N)[C@@H](O[C@H]2O[C@H](CN)[C@@H](O)[C@H](O)[C@H]2O)[C@H](O)[C@H]1O[C@H]1O[C@H](CO)[C@@H](O)[C@H](N)[C@H]1O [Amikacin, reference compound] | 95.4% | 102.4% | 108.7% | 82.4% | 104.0% | 80.0% | 62.9% | 40.4% | 20.3% | 11.8% |  |
| H-GIMSSLMKKLAAHIKK-NH2 [VIII] |  |  |  |  |  |  |  |  |  |  | > 400 µM |
